Where two headings read alike, the source gives them in different places.
Target: T1, human LTA4 hydrolase (Homo sapiens, UniProt P09960)
T1 sequence (P09960 1-611): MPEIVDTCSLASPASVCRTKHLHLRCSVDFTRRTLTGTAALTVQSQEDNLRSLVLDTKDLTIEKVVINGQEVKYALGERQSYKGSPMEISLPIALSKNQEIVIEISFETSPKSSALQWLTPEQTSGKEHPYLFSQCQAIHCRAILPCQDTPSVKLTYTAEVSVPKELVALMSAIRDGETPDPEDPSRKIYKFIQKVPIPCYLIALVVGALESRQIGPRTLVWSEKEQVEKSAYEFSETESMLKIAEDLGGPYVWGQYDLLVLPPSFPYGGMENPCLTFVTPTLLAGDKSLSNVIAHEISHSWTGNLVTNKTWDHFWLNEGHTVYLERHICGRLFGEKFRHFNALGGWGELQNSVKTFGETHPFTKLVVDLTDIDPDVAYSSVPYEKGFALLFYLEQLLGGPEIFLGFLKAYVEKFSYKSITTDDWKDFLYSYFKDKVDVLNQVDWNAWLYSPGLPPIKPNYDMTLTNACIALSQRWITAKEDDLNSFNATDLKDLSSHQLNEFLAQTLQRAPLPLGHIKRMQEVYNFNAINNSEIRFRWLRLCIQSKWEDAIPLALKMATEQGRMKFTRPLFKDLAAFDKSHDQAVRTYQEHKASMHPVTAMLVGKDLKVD
Assay: LTA4H Enzyme assay (cleavage of Arg-AMC, fluorescence)
Assay type: biochemical
Procedure, shortened: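 Aminomethylcoumarin release measured fluorimetrically (380/460 nm) after 1 h at room temperature. Reaction: 1 nM final enzyme, 50 μM final Arg-AMC and compound in Tris-HCl pH 7.5 with 100 mM KCl and 0.5% BSA.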

[1] = LTA4H Enzyme 1 nM, Arg-AMC substrate 50 μM, room temperature 1 h, fluorescence, read-out: IC50 values of LTA4H Enzyme assay

SMILES | IC50 [1] [nM] | IC50 [nM]
O=C(CO)NC1CCN(Cc2ccc([C@H]3COc4ccccc4O3)cc2)CC1 [Example 218, N-{1-[(S)-4-(2,3-Dihydro-benzo[1,4]dioxin-2-yl)-benzyl]-piperidin-4-yl}-2-hydroxy-acetamide] | 0.37 | –
O=C(O)[C@@H]1CCCN(Cc2ccc([C@H]3COc4ccccc4O3)cc2)C1 [Example 19, (3R)-1-{4-[(2S)-2,3-dihydro-1,4-benzodioxin-2-yl]benzyl}piperidine-3-carboxylic acid] | 0.73 | –
O=C(O)C1(NCc2ccc([C@H]3COc4ccccc4O3)cc2)CCCC1 [Example 59, 1-({4-[(2S)-2,3-dihydro-1,4-benzodioxin-2-yl]benzyl}amino)cyclopentane-carboxylic acid] | 89.2 | –
c1cnc2c(c1)OC[C@H](c1ccc(CNC3CCCC3)cc1)O2 [Example 135, N-{4-[(3S)-2,3-dihydro[1,4]dioxino[2,3-b]pyridin-3-yl]benzyl}cyclopentanamine] | 0.47 | –
CC(C)NCc1ccc([C@H]2COc3ccccc3O2)cc1 [Example 71, N-{4-[(2S)-2,3-dihydro-1,4-benzodioxin-2-yl]benzyl}propan-2-amine] | 1.88 | –
O=C1CCN(Cc2ccc([C@H]3COc4ccccc4O3)cc2)CCN1 [Example 131, 1-{4-[(2S)-2,3-dihydro-1,4-benzodioxin-2-yl]benzyl}-1,4-diazepan-5-one] | 1.73 | –
CN1CCC2(CCN(Cc3ccc([C@H]4COc5cccnc5O4)cc3)CC2)C1=O [Example 129, 8-{4-[(3S)-2,3-dihydro[1,4]dioxino[2,3-b]pyridin-3-yl]benzyl}-2-methyl-2,8-diazaspiro[4.5]decan-1-one] | 0.23 | –
CN(C)C(=O)C1CCN(Cc2ccc(C3COc4ccccc4O3)cc2)CC1 (racemic) [Example 51, 1-[4-(2,3-dihydro-1,4-benzodioxin-2-yl)benzyl]-N,N-dimethylpiperidine-4-carboxamide] | 0.82 | –
O=S1(=O)CCN(Cc2ccc([C@H]3COc4cccnc4O3)cc2)CC1 [Example 161, (3S)-3-{4-[(1,1-dioxidothiomorpholin-4-yl)methyl]phenyl}-2,3-dihydro[1,4]dioxino[2,3-b]pyridine] | 0.41 | –
CS(=O)(=O)NC1CCN(Cc2ccc(C3COc4ccccc4O3)cc2)CC1 (racemic) [Example 48, N-{1-[4-(2,3-dihydro-1,4-benzodioxin-2-yl)benzyl]piperidin-4-yl}methanesulfonamide] | 0.16 | –
O=C1CCCN1CC1CCN(Cc2ccc(C3COc4ccccc4O3)cc2)CC1 (racemic) [Example 50, 1-({1-[4-(2,3-dihydro-1,4-benzodioxin-2-yl)benzyl]piperidin-4-yl}methyl)pyrrolidin-2-one] | 0.6 | –
O=C1CCCN1Cc1ccc(C2COc3cccnc3O2)cc1 (stereo not shown) [Example 208, 11-[4-(2,3-dihydro-[1,4]dioxino[2,3-b]pyridin-3-yl)-benzyl]-pyrrolidin-2-one] | 21.4 | –
c1ccc2c(c1)OC[C@H](c1ccc(CN3CCC(c4nnn[nH]4)CC3)cc1)O2 [Example 216, 1-[(S)-4-(2,3-Dihydro-benzo[1,4]dioxin-2-yl)-benzyl]-4-(1H-tetrazol-5-yl)-piperidine] | 0.13 | –
CC(c1ccc([C@H]2COc3ccccc3O2)cc1)N1CCOCC1 (stereo partly drawn) [Example 226, 4-(1-{4-[(2S)-2,3-dihydro-1,4-benzodioxin-2-yl]phenyl}ethyl)morpholine] | 43 | –
CC1(C)CCN(Cc2ccc(C3COc4ccccc4O3)cc2)CC1 (racemic) [Example 3, 1-[4-(2,3-dihydro-1,4-benzodioxin-2-yl)benzyl]-4,4-dimethylpiperidine] | 2.57 | –
O=C(O)[C@H]1CCN(Cc2ccc([C@H]3COc4ccccc4O3)cc2)C1 [Example 215, (3S)-1-{4-[(2S)-2,3-dihydro-1,4-benzodioxin-2-yl]benzyl}pyrrolidine-3-carboxylic acid] | 0.7 | –
NCc1ccc(C2COc3cccnc3O2)cc1 (stereo not shown) [Example 210, 4-(2,3-Dihydro-[1,4]dioxino[2,3-b]pyridin-3-yl)-benzylamine] | 19 | –
FC1CCN(Cc2ccc(C3COc4ccccc4O3)cc2)CC1 (racemic) [Example 5, 1-[4-(2,3-dihydro-1,4-benzodioxin-2-yl)benzyl]-4-fluoropiperidine] | 2.96 | –
O=C(NCCO)C1CCN(Cc2ccc([C@H]3COc4cccnc4O3)cc2)CC1 [Example 154, 1-{4-[(3S)-2,3-dihydro[1,4]dioxino[2,3-b]pyridin-3-yl]benzyl}-N-(2-hydroxyethyl)piperidine-4-carboxamide] | 0.2 | –

SMILES | IC50 [1] [nM] | IC50 [nM]
CN(Cc1ccc([C@H]2COc3cccnc3O2)cc1)C1CCN(S(C)(=O)=O)CC1 [Example 169, N-{4-[(3S)-2,3-dihydro[1,4]dioxino[2,3-b]pyridin-3-yl]benzyl}-N-methyl-1-(methylsulfonyl)piperidin-4-amine] | 0.33 | –
O=C(NC1CCN(Cc2ccc([C@H]3COc4cccnc4O3)cc2)CC1)C1(O)CC1 [Example 223, N-(1-{4-[(3S)-2,3-dihydro[1,4]dioxino[2,3-b]pyridin-3-yl]benzyl}piperidin-4-yl)-1-hydroxycyclopropanecarboxamide] | 0.16 | –
CC[C@@H](C)NCc1ccc(C2COc3ccccc3O2)cc1 (mixture of isomers) [Example 24, (2R)-N-[4-(2,3-dihydro-1,4-benzodioxin-2-yl)benzyl]butan-2-amine] | 5.9 | –
CC(=O)N1CCCN(Cc2ccc(C3COc4ccccc4O3)cc2)CC1 (racemic) [Example 31, 1-{4-[4-(2,3-dihydro-1,4-benzodioxin-2-yl)benzyl]-1,4-diazepan-1-yl}ethanone] | 1.54 | –
COC1CCN(Cc2ccc([C@H]3COc4ccccc4O3)cc2)CC1 [Example 98, 1-{4-[(2S)-2,3-dihydro-1,4-benzodioxin-2-yl]benzyl}-4-methoxypiperidine] | – | 0.61
c1cnc2c(c1)OC[C@@H](c1ccc(CN3CCOCC3)cc1)O2 [Example 205, (R)-3-(4-Morpholin-4-ylmethyl-phenyl)-2,3-dihydro-[1,4]dioxino[2,3-b]pyridine] | 27.5 | –
O=C(O)CCCC1CCN(Cc2ccc([C@H]3COc4cccnc4O3)cc2)CC1 [Example 151, 4-(1-{4-[(3S)-2,3-dihydro[1,4]dioxino[2,3-b]pyridin-3-yl]benzyl}piperidin-4-yl)butanoic acid] | 0.1 | –
O=C1CCCCN1C1CCN(Cc2ccc([C@H]3COc4ccccc4O3)cc2)CC1 [Example 94, 1′-{4-[(2S)-2,3-dihydro-1,4-benzodioxin-2-yl]benzyl}-1,4′-bipiperidin-2-one] | 0.45 | –
OCC1CCN(Cc2ccc([C@H]3COc4ccccc4O3)cc2)CC1 [Example 90, (1-{4-[(2S)-2,3-dihydro-1,4-benzodioxin-2-yl]benzyl}piperidin-4-yl)methanol] | 0.77 | –
CCN(Cc1ccc([C@H]2COc3ccccc3O2)cc1)Cc1cccc(C(=O)O)c1 [Example 238, 3-{[{4-[(2S)-2,3-dihydro-1,4-benzodioxin-2-yl]benzyl}(ethyl)amino]methyl}benzoic acid] | 0.55 | –
CC(=O)N1CCN(Cc2ccc(C3COc4ccccc4O3)cc2)CC1 (racemic) [Example 11, 1-{4-[4-(2,3-dihydro-1,4-benzodioxin-2-yl)benzyl]piperazin-1-yl}ethanone] | 2.95 | –
OCCCC1CCN(Cc2ccc(C3COc4ccccc4O3)cc2)CC1 (racemic) [Example 29, 3-{1-[4-(2,3-dihydro-1,4-benzodioxin-2-yl)benzyl]piperidin-4-yl}propan-1-ol] | 2.04 | –
O[C@H]1CC[C@H](NCc2ccc([C@H]3COc4ccccc4O3)cc2)CC1 [Example 76, trans-4-({4-[(2S)-2,3-dihydro-1,4-benzodioxin-2-yl]benzyl}amino)cyclohexanol] | 1.9 | –
CCN(C)Cc1ccc([C@H]2COc3ccccc3O2)cc1 [Example 74, N-{4-[(2S)-2,3-dihydro-1,4-benzodioxin-2-yl]benzyl}-N-methylethanamine] | 1 | –
NC(=O)[C@H]1CCCC[C@H]1NCc1ccc([C@H]2COc3ccccc3O2)cc1 [Example 86, (1S,2R)-2-({4-[(2S)-2,3-dihydro-1,4-benzodioxin-2-yl]benzyl}amino)cyclohexane-carboxamide] | 0.92 | –
N#CC1CCN(Cc2ccc([C@H]3COc4cccnc4O3)cc2)CC1 [Example 159, 1-{4-[(3S)-2,3-dihydro[1,4]dioxino[2,3-b]pyridin-3-yl]benzyl}piperidine-4-carbonitrile] | 0.16 | –
c1ccc2c(c1)OCC(c1ccc(CNCC3CC3)cc1)O2 (racemic) [Example 43, 1-cyclopropyl-N-[4-(2,3-dihydro-1,4-benzodioxin-2-yl)benzyl]methanamine] | 4.42 | –
OC(C1CCN(Cc2ccc([C@H]3COc4ccccc4O3)cc2)CC1)C(F)(F)F (stereo partly drawn) [Example 21, 1-(1-{4-[(2S)-2,3-dihydro-1,4-benzodioxin-2-yl]benzyl}piperidin-4-yl)-2,2,2-trifluoroethanol] | 4.43 | –

Reference: patent US8946203B2, “Benzodioxane inhibitors of leukotriene production” (Boehringer Ingelheim International GmbH, priority 2012, dated 2015)
